According to patent US6159953A, “Anti-malarial composition and method of use” (Catholic University of America, priority 1992, dated 2000):
Read-outs that look alike come from different tables or passages of the source.

Experiments:
thymidylate synthesis = details: Heidelberger 1983; cited from earlier work
[1] = tested on: Plasmodium falciparum, Indochina clone W2; assay: microbe, parasite or virus in culture; details: for IC50: Plasmodium falciparum; for Molar Index: Indochina clone, equimolar activity of 5-fluoroorotate relative to the conventional drug
Procedure: In the antimalarial experiment with parasites, incorporation of radioactivity from [G-^3 H]-hypoxanthine into nucleic acids served as a measure of parasite proliferation. […] Each data point represents an average of two determinations. In the study of toxicity to human cells, proliferation of cells was determined directly by measuring the number of viable cells per well. […] Each data point represents an average of two determinations. 5-fluoro-orotate (.circle-solid.), 5-fluorouracil (.box-solid.), 5-fluorouridine (.tangle-solidup.), and 5-fluoro-2'-deoxyuridine (.diamond-solid.).
(§1) Half shaded symbols represent overlapping data points.
(§2) 3. Effects of pyrimidine analogues alone or in combination with normal pyrimidine bases or nucleosides or with amino acid derivatives can be tested in malaria parasite-infected erythrocytes. Varying concentrations of pyrimidine analogues in culture medium are added to individual wells of microtitre plates [Desjardins, R. E. et al., Antimicrob. […] Parasitemic erythrocytes in culture medium are added to each well. […] As an alternative to adding a radioactive precursor of nucleic acid biosynthesis, the end point for determining the effects of added drugs can be the incorporation of a radioactive amino acid, e.g., [U-^14 C]-isoleucine, into parasite protein.
Fluoropyrimidines, dispersed in 25 μl of culture medium, were added to individual wells of a 96-well microtitre plate. […] Finally, the incorporation of 0.5 μCi of [G-^3 H]hypoxanthine (1 Ci/mmol) into nucleic acids in each well was determined; this served as a measure of parasite proliferation.

[2] = tested on: HT-1080 human fibrosarcoma cells; assay: Toxicity to cultured HT-1080 cells, number of viable cells; type: cell-based; details: Homo sapiens, HT-1080, 48 h
Procedure: Each data point represents an average of two determinations. […] Each data point represents an average of two determinations.
as §1
Toxicity of pyrimidine analogues to cultured human cells is determined as follows. Mammalian cells are seeded into culture plate wells, and growth medium is added. The following day, fresh culture medium containing the appropriate pyrimidine analogues is added to the wells, and the plates incubated for a period of time and at a temperature appropriate to the cell line and the experimental requirements. Thereafter, the number of cells in each well is determined. […] Cells that grow in suspension (e.g., HL-60 and L-1210 cells) are transferred to centrifuge tubes, pelleted at low speed, washed, and the viability determined as above.
HT-1080 cells were seeded into 6-well culture plates at a density of 50,000 cells per 9.6 cm^2 well. Each well contained 2.5 ml of growth medium. […] After 1 minute, the detached cells were suspended in 1.0 ml of EMEM and collected by centrifugation at 300×g for 3 minutes. […] The concentrations of viable cells were determined in a hemocytometer.

[3] = tested on: Plasmodium falciparum, Sierra Leone clone D6; assay: Inhibition of P. falciparum proliferation, [G-3H]-hypoxanthine incorporation, Sierra Leone clone D6 (chloroquine-sensitive); type: cell-based; details: Sierra Leone clone; for IC50: Plasmodium falciparum, D6, Table 1, mean ± S.D. of five independent drug response curves; for Molar Index: equimolar activity of 5-fluoroorotate relative to the conventional drug
Procedure: as §2
Fluoropyrimidines, dispersed in 25 μl of culture medium, were added to individual wells of a 96-well microtitre plate. […] Finally, the incorporation of 0.5 μCi of [G-^3 H]hypoxanthine (1 Ci/mmol) into nucleic acids in each well was determined; this served as a measure of parasite proliferation. […] In a second method, the increase in parasitemia was determined directly by smearing infected erythrocytes on microscope slides, staining with Giemsa stain, and determining the ratio of infected to non-infected erythrocytes. In a third method, parasite-infected erythrocytes were incubated with [U-^14 C]-isoleucine (0.5 μCi; 0.33 Ci/mmol), and the amount of radioactivity incorporated into precipitable proteins determined.

[4] = cited from earlier work
P. yoelii = assay: Anti-malarial activity in P. yoelii-infected mice; type: in vivo, P. yoelii in Swiss white mice; details: experiment 2 control, 800 mg/kg uridine alone
Procedure: FIG. 4 illustrates the effect of 5-fluoro-orotate treatment on blood parasitemia. Mice infected with P. yoelii on day 0 in experiments 1 and 2 were treated with (A) 0.2 mg/kg 5-fluoro-orotate, (B) 1 mg/kg, or (C) 5 mg/kg every 4 hours for three days. Control mice (.largecircle., .circle-solid., respectively), received no drug. Open symbols represent treatment without uridine (experiment 1: .smallcircle., .quadrature., .diamond., Δ), and filled symbols represent animals also treated with uridine (experiment 2: .circle-solid., .box-solid., .diamond-solid., .tangle-solidup.). Animals were treated with 5-fluoro-orotate on days 3 to 6. Animals were also treated with uridine in experiment 2 on days 3 to 9.
FIG. 5 illustrates the survival rate of mice infected with P. yoelii and treated with 5-fluoro-orotate, alone or in combination with uridine. Mice were treated with (A) 0.2 mg/kg 5-fluoro-orotate, (B) 1 mg/kg, or (C) 5 mg/kg. Control mice received no 5-fluoro-orotate (.largecircle., .circle-solid., respectively). Open symbols represent treatment without uridine (experiment 1: .largecircle., .quadrature., .diamond., Δ), and closed symbols represent animals also receiving uridine (experiment 2: .circle-solid., .box-solid., .diamond-solid., .tangle-solidup.).
A second in vivo test system can be used to determine if repeated administration of the pyrimidine analogue would have safe anti-malarial activity. In this test system, groups of animals are infected with malaria parasites. At a time when blood parasitemia is reached, the animals are injected with saline alone (control) or with various concentrations of one or more pyrimidine analogues alone or together with one or more rescuing pyrimidine bases or nucleosides at a single concentration, at intervals, over a period of several days. In order to determine the prophylactic effectiveness of the rescuing pyrimidine base or nucleoside, the animals are pretreated with such a base or nucleoside prior to the administration of the pyrimidine analogue. Anti-malarial activity of the treatments is estimated by determining blood parasitemia on the animals at appropriate times. The safety of the treatments is estimated by monitoring animals for weight loss and diarrhea, as these are early symptoms of pyrimidine analogue toxicity [Houghton, J. A., et al., Cancer Res., 39:2406-13 (1979)].
Swiss white mice (25-30 g) were divided into groups of five. On day 0, each mouse was infected by intraperitoneal injection of 10^5 erythrocytic forms of P. yoelii. Starting on day 3, when the blood parasitemia had reached between 5 and 12%, the mice were injected intraperitoneally every 4 hours for three consecutive days with 200 μl of various formulations. […]

[5] = text value (FIG. 1B), read-out: IC50

| SMILES | IC50 ([1]; W2, 48 h) | Molar Index [1] | IC50 ([1]; W2) | Molar Index [3] | other results |
| --- | --- | --- | --- | --- | --- |
| O=c1[nH]c(=O)n([C@H]2C[C@H](O)[C@@H](COP(=O)(O)O)O2)cc1F [5-fluoro-2'-deoxy-uridylate] |  |  |  |  | inhibition of thymidylate synthesis (thymidylate synthesis): potent enzyme-activated inhibitor of thymidylate synthesis |
| O=c1[nH]c(=O)n([C@H]2C[C@H](O)[C@@H](CO)O2)cc1F [5-fluoro-2'-deoxyuridine, reference compound] | 100000 nM |  |  |  | IC50 [2, 5]: 10 nM |
| O=c1[nH]cc(F)c(=O)[nH]1 [5-fluoro-uracil, reference compound] | 12000 nM |  |  |  | IC50 ([2]; read-out: IC50 (50% inhibition)): 2000 nM |
| O=c1[nH]c(=O)n([C@@H]2O[C@H](CO)[C@@H](O)[C@H]2O)cc1F [5-fluoro-uridine, reference compound] | 32000 nM |  |  |  | IC50 [2, 5]: 30 nM |
| CCN(CC)CCCC(C)Nc1ccnc2cc(Cl)ccc12 (stereo not shown) [Chloroquine] |  | 21 | 127 ± 23 nM | 1.6 | IC50 [3]: 9 ± 1.7 nM; tolerability, oral ([4]; oral): typically is well-tolerated; safety, parenteral ([4]; parenteral, children): may cause cardiac arrhythmia and sudden death in children |
| CCc1nc(N)nc(N)c1-c1ccc(Cl)cc1 [Pyrimethamine] |  | 19 | 111 ± 29 nM | 0.04 | IC50 ([3]; read-out: IC50): 0.24 ± 0.16 nM |
| COc1ncnc(NS(=O)(=O)c2ccc(N)cc2)c1OC [Sulfadoxine] |  | 4344 | 25600 ± 7080 nM | 13.5 | IC50 ([3]; read-out: IC50): 76.2 ± 13.2 nM |
| O=c1ccn([C@@H]2O[C@H](CO)[C@@H](O)[C@H]2O)c(=O)[nH]1 [uridine, reference compound] |  |  |  |  | mortality, uridine alone (P. yoelii): all succumbed to P. yoelii |
